Test results published in the NIST ThermoML archive (doi:10.1021/je200969r).
± gives the expanded uncertainty stated by the source.

Assay: refractive index (other wavelength) (dimensionless)
Conditions: 101.33 kPa, Liquid, Minimum Deviation technique

[2H]O[2H] [water-d2]
refractive index
Conditions | Wavelength=543.5 nm | Wavelength=594.1 nm | Wavelength=632.8 nm
288.35 K | 1.33 ± 0.0004 | 1.3283 ± 0.0004 | 1.3272 ± 0.0004
293.29 K | 1.3298 ± 0.0004 | 1.3281 ± 0.0004 | 1.327 ± 0.0004
298.12 K | 1.3293 ± 0.0004 | 1.3278 ± 0.0004 | 1.3267 ± 0.0004
303.15 K | 1.3285 ± 0.0004 | 1.3271 ± 0.0004 | 1.326 ± 0.0004
308.09 K | 1.328 ± 0.0004 | 1.3266 ± 0.0004 | 1.3254 ± 0.0004
313.11 K | 1.3275 ± 0.0004 | 1.3259 ± 0.0004 | 1.3249 ± 0.0004
318.13 K | 1.3269 ± 0.0004 | 1.3254 ± 0.0004 | 1.3243 ± 0.0004
323.14 K | 1.3263 ± 0.0004 | 1.3248 ± 0.0004 | 1.3237 ± 0.0004
328.12 K | 1.3251 ± 0.0004 | 1.3236 ± 0.0004 | 1.3225 ± 0.0004
333.06 K | 1.3244 ± 0.0004 | 1.3229 ± 0.0004 | 1.3219 ± 0.0004
337.98 K | 1.3237 ± 0.0004 | 1.3221 ± 0.0004 | 1.3211 ± 0.0004
